For the test, the target named is T1, Cbl-b (truncated variant, UniProt number Q13191) (Homo sapiens, UniProt Q13191).
T1 construct: made in house
Briefly: Cbl-b activity assay (TR-FRET, interaction of Cbl-b with UbcH5B-Ub). The class given is biochemical. The source says:
As described in Biological Example 1A, a Cbl-b activity assay (Cbl-b inhibition assay) used to measure the IC50 values for Cbl-b inhibition uses a mixture comprising candidate compound, Cbl-b (truncated, with an Avitag, and biotinylated), a fluorescently-labeled E2 enzyme UbcH5B labelled with ubiquitin conjugated to BODIPY-fluorescein (UbcH5B-Ub), streptavidin-terbium, and assay buffer. In one embodiment, the Cbl-b activity assay (Cbl-b inhibition assay) used to measure IC50 for inhibition of Cbl-b uses the conditions described in Biological Example 1A with 12 nM Cbl-b. […] In another embodiment, the Cbl-b activity assay (Cbl-b inhibition assay) used to measure IC50 for inhibition of Cbl-b uses the conditions described in Biological Example 1B, with candidate compound, 0.125 nM Cbl-b (truncated, with an avitag, and biotinylated), fluorescently labelled inhibitor probe, and assay buffer. Displacement of the inhibitor probe indicates Cbl-b activity.
Candidate compounds isolated from screening assays were evaluated for their ability to bind and inhibit Cbl-b, an E3 ubiquitin-protein ligase.
The ability of candidate compounds to inhibit Cbl-b activity was measured by monitoring the interaction of Cbl-b with UbcH5B-Ub in the presence of the candidate compound. A truncated variant of Cbl-b (UniProt number Q13191; SEQ ID NO:1) containing an Avitag at its N-terminus was co-expressed with BirA biotin ligase and purified using a standard protocol (see Dou et al., Nature Structural and Molecular Biology 8: 982-987, 2013; Avidity LLC).
Fluorescently labeled UbcH5B-Ub was prepared by conjugating ubiquitin (Ub), labeled at its N-terminus with Bodipy-Fluorescein, to UbcH5B, an E2 enzyme, harboring a cysteine to lysine mutation at position 85. This mutation is similar to a mutation that was previously reported (see Dou et al., Nature Structural and Molecular Biology 8: 982-987, 2013). Cbl-b activity assays were performed in a 384-well plate at room temperature in a 10 μL reaction volume by pre-incubating 12 nM Cbl-b (final concentration) in an assay buffer containing 50 mM HEPES pH 7.0, 100 mM NaCl, 0.01% Triton X-100, 0.01% BSA, and 1 mM DTT in the presence of a candidate compound in 1% DMSO (final concentration, High Conditions) for one hour. After incubation in the presence of the candidate compound, the plate was incubated for an additional 1.5 hours in the presence of 60 nM Src kinase with 1 mM ATP and 5 mM MgCl2 (final concentrations). Alternatively, compounds were tested as described above with assay buffer containing 50 mM NaCl instead of 100 mM NaCl and 30 nM Src kinase instead of 60 nM Src kinase (Low Conditions). Src kinase was prepared as previously described (see Kobashigawa et al., Proc Natl Acad Sci USA, 108: 20579-20584, 2011). […] The plate was incubated for one hour. Following the one hour incubation, the plates were read for TR-FRET signal at 520/620 nm using Envision plate reader (Perkin Elmer). The presence of a FRET signal that indicated Cbl-b was not inhibited by the compound candidate. The absence of a FRET signal indicated Cbl-b was inhibited by the compound candidate and was therefore a Cbl-b inhibitor.
The resulting data for the Cbl-b activity assays were analyzed using standard methods to report the IC50 values of the tested compounds (Tables 3-4). The resulting data for the Cbl-b binding assay was solvent corrected and double-referenced prior to analysis. All data were globally fit to a steady-state affinity and kinetic binding model where applicable. Compounds were ranked into bins A through D as follows for IC50: A indicates <0.1 μM, B indicates 0.1 μM≤IC50<1 μM, C indicates 1 μM≤IC50<5 μM, and D indicates 5 μM≤IC50.
In general terms: TR-FRET usually uses a lanthanide donor and a delayed reading to cut background.

[1] abbreviates: high conditions: 100 mM NaCl, 60 nM Src kinase, 12 nM Cbl-b, read-out: Cbl-b activity IC50.
Where [2] appears, read: Biological Example 1A, low or high conditions not stated, read-out: IC50 values in the Cbl-b inhibition assay of Biological Example 1A.

Like-named read-outs stand apart in the source and are kept apart here.

T1 sequence (Q13191 36-427): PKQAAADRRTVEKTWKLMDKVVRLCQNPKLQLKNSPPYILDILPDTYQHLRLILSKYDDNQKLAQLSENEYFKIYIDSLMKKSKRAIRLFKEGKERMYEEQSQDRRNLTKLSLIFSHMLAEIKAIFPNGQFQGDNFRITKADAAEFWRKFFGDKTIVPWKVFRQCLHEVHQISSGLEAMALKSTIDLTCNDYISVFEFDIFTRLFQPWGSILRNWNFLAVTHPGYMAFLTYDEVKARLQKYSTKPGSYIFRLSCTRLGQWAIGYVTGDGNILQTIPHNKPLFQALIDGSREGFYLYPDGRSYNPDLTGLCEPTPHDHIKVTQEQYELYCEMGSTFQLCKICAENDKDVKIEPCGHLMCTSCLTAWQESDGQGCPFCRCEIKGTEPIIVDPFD

Regarding `C[C@H](Sc1nncn1C)c1cccc(NC(=O)N2CCC(C(F)F)C2)c1` (stereo partly drawn) [Example 47, 3-(difluoromethyl)-N-(3-((S)-1-((4-methyl-4H-1,2,4-triazol-3-yl)thio)ethyl)phenyl)pyrrolidine-1-carboxamide], the IC50 – broadly, the concentration that gives 50% inhibition – under setting [1] was ≥ 5 µM.

Consider `C[C@H](Sc1nncn1C)c1cccc(NC(=O)N2CCOC3(CC3)C2)c1` [Example 48, (S)—N-(3-(1-((4-methyl-4H-1,2,4-triazol-3-yl)thio)ethyl)phenyl)-4-oxa-7-azaspiro[2.5]octane-7-carboxamide], for which, under setting [1], the IC50 was ≥ 5 µM.

In the case of `C[C@H](Sc1nncn1C)c1cccc(NC(=O)N(C)C2CCC2)c1` [Example 49, (S)-1-cyclobutyl-1-methyl-3-(3-(1-((4-methyl-4H-1,2,4-triazol-3-yl)thio)ethyl)phenyl)urea], under setting [1], the IC50 is ≥ 5 µM.

Consider `CNC(=O)C1(C(F)(F)F)CCN(C(=O)Nc2cccc([C@H](C)Sc3nncn3C)c2)C1` (stereo partly drawn) [Example 50, N^3-methyl-N^1-(3-((S)-1-((4-methyl-4H-1,2,4-triazol-3-yl)thio)ethyl)phenyl)-3-(trifluoromethyl)pyrrolidine-1,3-dicarboxamide], for which the IC50 is, setting by setting: under setting [2], 1 to 5 µM; under setting [1], 1 to 5 µM.

As for `CC(C)C1CN(C(=O)Nc2cccc([C@H](C)Sc3nncn3C)c2)CCO1` (stereo partly drawn) [Example 51, 2-isopropyl-N-(3-((S)-1-((4-methyl-4H-1,2,4-triazol-3-yl)thio)ethyl)phenyl)morpholine-4-carboxamide], the half-inhibitory concentration (IC50) under setting [1] is ≥ 5 µM.

`C[C@H](Sc1nncn1C)c1cccc(NC(=O)N2CC(OC(F)(F)F)C2)c1` [Example 52, (S)—N-(3-(1-((4-methyl-4H-1,2,4-triazol-3-yl)thio)ethyl)phenyl)-3-(trifluoromethoxy)azetidine-1-carboxamide]: under setting [1], the IC50 is ≥ 5 µM.

Regarding `C[C@H](Sc1nncn1C)c1cccc(NC(=O)N2CC(c3cnn(C)c3)C(C)(C)C2)c1` (stereo partly drawn) [Example 53, 3,3-dimethyl-4-(1-methyl-1H-pyrazol-4-yl)-N-(3-((S)-1-((4-methyl-4H-1,2,4-triazol-3-yl)thio)ethyl)phenyl)pyrrolidine-1-carboxamide], the IC50 under setting [1] was ≥ 5 µM.

On to `CC1CN(C(=O)Nc2cccc([C@H](C)Sc3nncn3C)c2)CC1CO` (stereo partly drawn) [Example 54, 3-(hydroxymethyl)-4-methyl-N-(3-((S)-1-((4-methyl-4H-1,2,4-triazol-3-yl)thio)ethyl)phenyl)pyrrolidine-1-carboxamide], for which the IC50 under setting [1] is ≥ 5 µM.

In the case of `Cc1ccc(-c2cc(-c3cccc([C@H](C)Sc4nncn4C)c3)on2)cc1` [Example 55, (S)-5-(3-(1-(4-methyl-4H-1,2,4-triazol-3-ylthio)ethyl)phenyl)-3-p-tolylisoxazole], under setting [1], the IC50 lay within 1 to 5 µM.

As for `Cc1cccc(-c2cc(-c3cccc([C@H](C)Sc4nncn4C)c3)on2)c1` [Example 56, 4-methyl-3-[[(1S)-1-[3-[3-(3-methylphenyl)-1,2-oxazol-5-yl]phenyl]ethyl]sulfanyl]-4H-1,2,4-triazole], under setting [1], the IC50 was 1 to 5 µM.

Turning to `C[C@H](Sc1nncn1C)c1cccc(-c2cc(-c3ccc(Cl)cc3)no2)c1` [Example 57, (S)-3-(4-chlorophenyl)-5-(3-(1-((4-methyl-4H-1,2,4-triazol-3-yl)thio)ethyl)phenyl)isoxazole], the IC50 under setting [1] was 1 to 5 µM.

On to `C[C@H](Sc1nncn1C)c1cccc(-c2cc(-c3cccc(Cl)c3)no2)c1` [Example 58, 3-[[(1S)-1-[3-[3-(3-chlorophenyl)-1,2-oxazol-5-yl]phenyl]ethyl]sulfanyl]-4-methyl-4H-1,2,4-triazole], for which the IC50 under setting [1] lay within 1 to 5 µM.

Regarding `COc1ccc(-c2cc(-c3cccc([C@H](C)Sc4nncn4C)c3)on2)cc1` [Example 59, (S)-3-(4-methoxyphenyl)-5-(3-(1-((4-methyl-4H-1,2,4-triazol-3-yl)thio)ethyl)phenyl)isoxazole], the IC50 under setting [1] lay within 1 to 5 µM.

Turning to `COc1cccc(-c2cc(-c3cccc([C@H](C)Sc4nncn4C)c3)on2)c1` [Example 60, (S)-3-(3-methoxyphenyl)-5-(3-(1-((4-methyl-4H-1,2,4-triazol-3-yl)thio)ethyl)phenyl)isoxazole], the IC50 under setting [1] lay within 1 to 5 µM.

For `C[C@H](Sc1nncn1C)c1cccc(-c2cc(-c3ccc(C#N)cc3)no2)c1` [Example 61, (S)-4-(5-(3-(1-(4-methyl-4H-1,2,4-triazol-3-ylthio)ethyl)phenyl)isoxazol-3-yl)benzonitrile], the IC50 under setting [1] is 1 to 5 µM.

In the case of `C[C@H](Sc1nncn1C)c1cccc(-c2cc(-c3cccc(C#N)c3)no2)c1` [Example 62, (S)-3-(5-(3-(1-(4-methyl-4H-1,2,4-triazol-3-ylthio)ethyl)phenyl)isoxazol-3-yl)benzonitrile], the IC50 under setting [1] is 1 to 5 µM.

Take `C[C@H](Sc1nncn1C)c1cccc(-c2cc(-c3ccc(C(=O)O)cc3)no2)c1` [Example 63, 4-(5-{3-[(1S)-1-[(4-methyl-4H-1,2,4-triazol-3-yl)sulfanyl]ethyl]phenyl}-1,2-oxazol-3-yl)benzoic acid]: the IC50 under setting [2] was ≥ 5 µM and the IC50 under setting [1] is ≥ 5 µM.

On to `C[C@H](Sc1nncn1C)c1cccc(-c2cc(-c3ccc(CO)cc3)no2)c1` [Example 64, (S)-(4-(5-(3-(1-(4-methyl-4H-1,2,4-triazol-3-ylthio)ethyl)phenyl)isoxazol-3-yl)phenyl)methanol], for which the IC50 lay within 1 to 5 µM under setting [2] and 1 to 5 µM under setting [1].

Regarding `CNC(=O)c1ccc(-c2cc(-c3cccc([C@H](C)Sc4nncn4C)c3)on2)cc1` [Example 65, (S)—N-methyl-4-(5-(3-(1-(4-methyl-4H-1,2,4-triazol-3-ylthio)ethyl)phenyl)isoxazol-3-yl)benzamide], the IC50 lay in the range of 1 to 5 µM under setting [2] and 1 to 5 µM under setting [1].

`C[C@H](Sc1nncn1C)c1cccc(-c2cc(-c3ccc(S(C)(=O)=O)cc3)no2)c1` [Example 66, ((S)-5-(3-(1-(4-methyl-4H-1,2,4-triazol-3-yl)thio)ethyl)phenyl)-3-(4-(methylsulfonyl)phenyl)isoxazole]: the 50% inhibitory concentration (IC50) under setting [2] was ≥ 5 µM and the half-inhibitory concentration (IC50) under setting [1] was ≥ 5 µM.

Regarding `C[C@H](Sc1nncn1C)c1cccc(-c2cc(-c3ccccc3)no2)c1` [Example 67, (S)-5-(3-(1-((4-methyl-4H-1,2,4-triazol-3-yl)thio)ethyl)phenyl)-3-phenylisoxazole], the IC50 by setting is: under setting [2], 1 to 5 µM; under setting [1], 1 to 5 µM.

For `C[C@@H](Sc1nncn1C)c1cccc(-c2cc(-c3ccccc3)no2)c1` [Example 68, (R)-5-(3-(1-((4-methyl-4H-1,2,4-triazol-3-yl)thio)ethyl)phenyl)-3-phenylisoxazole], the IC50 under setting [2] was ≥ 5 µM and the half-inhibitory concentration (IC50) under setting [1] was ≥ 5 µM.

For the compound `CC(Sc1nncn1C)c1cccc(-c2cc(-c3cccc(C(F)(F)F)c3)no2)c1` (centres unmarked) [Example 69, 5-(3-(1-((4-methyl-4H-1,2,4-triazol-3-yl)thio)ethyl)phenyl)-3-(3-(trifluoromethyl)phenyl)isoxazole], the half-inhibitory concentration (IC50) reads like this: under setting [2], 1 to 5 µM; under setting [1], 1 to 5 µM.

Consider `CC(Sc1nncn1C)c1cccc(-c2cc(-c3ccccn3)no2)c1` (centres unmarked) [Example 70, 5-(3-(1-((4-methyl-4H-1,2,4-triazol-3-yl)thio)ethyl)phenyl)-3-(pyridin-2-yl)isoxazole], for which the IC50 reads like this: under setting [2], ≥ 5 µM; under setting [1], ≥ 5 µM.

On to `CC(Sc1nncn1C)c1ccnc(-c2cc(-c3ccccc3)no2)c1` (centres unmarked) [Example 71, 5-(4-(1-((4-methyl-4H-1,2,4-triazol-3-yl)thio)ethyl)pyridin-2-yl)-3-phenylisoxazole], for which the half-maximal inhibitory concentration (IC50) by setting is: under setting [2], ≥ 5 µM; under setting [1], ≥ 5 µM.

The values above are taken from patent publication US12653809B2, “Urea, amide, and substituted heteroaryl compounds for CBL-B inhibition” (Nurix Therapeutics, Inc., priority 2019, dated 2026).
